Experiment in all cases: Antibacterial activity (MIC), agar dilution
Common to all, as to format: cell-based

One assay relates to Pro. vulgaris GN76**. Conditions: Proteus vulgaris, 20 h; Pro. vulgaris GN76, cephalospolinase-producing; 10^6 cells per ml; read-out: MIC. From the text: (§1) The amount of bacteria inoculated was 10^4 cells per plate (10^6 cells per ml).
(§2) ** Cephalospolinase-producing bacteria

The test system of another assay is E. coli GN5482**. Conditions: Escherichia coli, 20 h; E. coli GN5482, cephalospolinase-producing; 10^6 cells per ml; read-out: MIC.
Excerpt: as §1, §2

The test system of a further assay is Ps. aeruginosa GN918**. Conditions: Pseudomonas aeruginosa, Ps. aeruginosa GN918, cephalospolinase-producing, 10^6 cells per ml.
Excerpt: as §1, §2

The test system of a further assay is St. aureus F-137*. Conditions: Staphylococcus aureus, 20 h, St. aureus F-137, penicillinase-producing; 10^6 cells per ml; read-out: MIC.
Excerpt: as §1
(§3) * Penicillinase-producing bacteria

The test system of another assay is E. coli TK-3*. The settings on record: Escherichia coli, 20 h, E. coli TK-3, penicillinase-producing; 10^6 cells per ml; read-out: MIC.
Excerpt: as §1, §3

The subject of the next assay is Ps. aeruginosa GN3379*. Conditions: Pseudomonas aeruginosa, Ps. aeruginosa GN3379, penicillinase-producing, 10^6 cells per ml.
Excerpt: as §1, §3

A further assay relates to Kl. pneumoniae Y-4*. The settings on record: Klebsiella pneumoniae, 20 h, Kl. pneumoniae Y-4, penicillinase-producing; 10^6 cells per ml; read-out: MIC.
Excerpt: as §1, §3

The subject of a further assay is Pro. morganii T-216. Conditions: Morganella morganii, 37° C.
Excerpt: as §1

Another assay relates to Pro. vulgaris GN3027. Conditions: Proteus vulgaris, GN3027, 20 h, Pro. vulgaris GN3027; 10^6 cells per ml; 37° C., 20 hours; read-out: MIC.
Excerpt: as §1

The test system of a further assay is Kl. pneumoniae Y-41. Conditions: Klebsiella pneumoniae, Y41, 10^6 cells per ml, 37° C., 20 hours, read-out: MIC.
Excerpt: as §1

In the next assay the test system is Ps. aeruginosa S-68. Conditions: Pseudomonas aeruginosa.
Excerpt: as §1

A further assay deals with E. coli NIHJ JC-2. The settings on record: Escherichia coli, NIHJJC2, 20 h, E. coli NIHJ JC-2; 10^6 cells per ml; 37° C., 20 hours; read-out: MIC.
Excerpt: as §1

The next assay concerns E. coli TK-111. Conditions: Escherichia coli, TK111, 20 h, E. coli TK-111; 10^6 cells per ml; 37° C., 20 hours; read-out: MIC.
Excerpt: as §1

A further assay concerns Kl. pneumoniae Y-50. The settings on record: Klebsiella pneumoniae, Y50, 20 h, 10^6 cells per ml, 37° C., read-out: MIC.
Excerpt: as §1

For the next assay, the system named is Ps. aeruginosa IFO3445. Conditions: Pseudomonas aeruginosa.
Excerpt: as §1

The next assay deals with Ent. cloacae IID977. The settings on record: Enterobacter cloacae, IID977, 20 h, Ent. cloacae IID977; 10^6 cells per ml; 37° C., 20 hours; read-out: MIC.
Excerpt: as §1

A further assay deals with Pro. mirabilis T-111. Conditions: Proteus mirabilis, T111, 20 h, 10^6 cells per ml, 37° C.
Excerpt: as §1

A further assay relates to St. aureus FDA209P. The settings on record: Staphylococcus aureus, FDA209P, 20 h, St. aureus FDA209P; 10^6 cells per ml; 37° C., 20 hours; read-out: MIC.
Excerpt: as §1

In another assay the test system is Aci. antitratus A-6. The settings on record: 20 h, Aci. antitratus A-6; 10^6 cells per ml; 37° C., 20 hours; read-out: MIC.
Excerpt: as §1

Setting [1] is: S68, Ps. aeruginosa S-68, 10^6 cells per ml, 37° C., 20 hours, read-out: MIC.
Setting [2] is: Ps. aeruginosa IFO3445, 10^6 cells per ml, 37° C., 20 hours, read-out: MIC.
[3] abbreviates: T216, 10^6 cells per ml, 20 hours, read-out: MIC.

SMILES strings stand for the structures. Converted amounts (≈) assume the structure as drawn. Where two headings read alike, the source gives them in different places.

Take `Cc1cc(O)ccc1-n1cc(C(=O)O)c(=O)cc1-c1ccc2[nH]ccc2c1`: the MIC with Pro. vulgaris GN76** was 0.78 µg/mL (≈ 2.16 µM); in the assay on E. coli GN5482**, no more than 0.05 µg/mL; in the assay on Ps. aeruginosa GN918** (20 h, read-out: MIC), 3.13 µg/mL (≈ 8.69 µM); with St. aureus F-137* it was 0.1 µg/mL (≈ 0.277 µM); with E. coli TK-3*, 0.39 µg/mL (≈ 1.08 µM); in the assay with Ps. aeruginosa GN3379* (20 h, read-out: MIC) it was 25 µg/mL (≈ 69.4 µM). In addition, the MIC in the assay on Kl. pneumoniae Y-4* was found to be 1.56 µg/mL (≈ 4.33 µM); in the assay on Pro. morganii T-216 (T216, 20 h, 10^6 cells per ml) it was 1.56 µg/mL (≈ 4.33 µM); in the assay on Pro. vulgaris GN3027, 0.2 µg/mL (≈ 0.555 µM); with Kl. pneumoniae Y-41 it was 0.78 µg/mL (≈ 2.16 µM); in the assay on Ps. aeruginosa S-68 (setting [1]), 6.25 µg/mL (≈ 17.3 µM); in the assay with E. coli NIHJ JC-2, 0.39 µg/mL (≈ 1.08 µM). In addition, the MIC in the assay with E. coli TK-111 amounted to 0.1 µg/mL (≈ 0.277 µM); in the assay on Kl. pneumoniae Y-50, 0.2 µg/mL (≈ 0.555 µM); with Ps. aeruginosa IFO3445 (setting [2]), 6.25 µg/mL (≈ 17.3 µM); in the assay on Ent. cloacae IID977, 0.78 µg/mL (≈ 2.16 µM); with Pro. mirabilis T-111 it was 1.56 µg/mL (≈ 4.33 µM); in the assay on St. aureus FDA209P, 0.1 µg/mL (≈ 0.277 µM). In addition, the MIC in the assay with Aci. antitratus A-6 came out at 3.13 µg/mL (≈ 8.69 µM).
In the case of `COc1ccc(-c2cc(=O)c(C(=O)O)cn2-c2ccc(O)cc2C)cc1F`, the MIC was 0.39 µg/mL (≈ 1.06 µM) in the assay on Pro. vulgaris GN76**; no more than 0.05 µg/mL with E. coli GN5482**; 1.56 µg/mL (≈ 4.22 µM) in the assay with Ps. aeruginosa GN918** (GN918, 20 h); 0.1 µg/mL (≈ 0.271 µM) in the assay on St. aureus F-137*; 0.39 µg/mL (≈ 1.06 µM) with E. coli TK-3*; 12.5 µg/mL (≈ 33.8 µM) in the assay on Ps. aeruginosa GN3379* (20 h, read-out: MIC). Moreover, the MIC in the assay on Kl. pneumoniae Y-4* amounted to 1.56 µg/mL (≈ 4.22 µM); with Pro. morganii T-216 (T216, 20 h, 10^6 cells per ml), 1.56 µg/mL (≈ 4.22 µM); in the assay with Pro. vulgaris GN3027 it was 0.1 µg/mL (≈ 0.271 µM); in the assay on Kl. pneumoniae Y-41, 1.56 µg/mL (≈ 4.22 µM); in the assay with Ps. aeruginosa S-68 (setting [1]) it was 6.25 µg/mL (≈ 16.9 µM); with E. coli NIHJ JC-2 it was 0.39 µg/mL (≈ 1.06 µM). For the same compound, the MIC was no more than 0.05 µg/mL in the assay on E. coli TK-111; 0.78 µg/mL (≈ 2.11 µM) with Kl. pneumoniae Y-50; 12.5 µg/mL (≈ 33.8 µM) with Ps. aeruginosa IFO3445 (setting [2]); 0.39 µg/mL (≈ 1.06 µM) in the assay with Ent. cloacae IID977; 1.56 µg/mL (≈ 4.22 µM) in the assay on Pro. mirabilis T-111; 0.1 µg/mL (≈ 0.271 µM) in the assay on St. aureus FDA209P. In addition, the MIC in the assay on Aci. antitratus A-6 turned out to be 0.39 µg/mL (≈ 1.06 µM).
In the case of `Cc1cc(O)ccc1-n1cc(C(=O)O)c(=O)cc1/C=C/c1ccccc1`, the MIC was 0.39 µg/mL (≈ 1.12 µM) with Pro. vulgaris GN76**; no more than 0.05 µg/mL in the assay on E. coli GN5482**; 1.56 µg/mL (≈ 4.49 µM) with Ps. aeruginosa GN918** (20 h, read-out: MIC); 0.2 µg/mL (≈ 0.576 µM) in the assay with St. aureus F-137*; 0.39 µg/mL (≈ 1.12 µM) in the assay with E. coli TK-3*; 6.25 µg/mL (≈ 18 µM) in the assay on Ps. aeruginosa GN3379* (20 h, read-out: MIC). For the same compound, the MIC with Kl. pneumoniae Y-4* was determined as 3.13 µg/mL (≈ 9.01 µM); with Pro. morganii T-216 (setting [3]) it was 1.56 µg/mL (≈ 4.49 µM); with Pro. vulgaris GN3027, 0.1 µg/mL (≈ 0.288 µM); with Kl. pneumoniae Y-41, 3.13 µg/mL (≈ 9.01 µM); in the assay with Ps. aeruginosa S-68 (S68, 20 h) it was 3.13 µg/mL (≈ 9.01 µM); in the assay with E. coli NIHJ JC-2 it was 0.39 µg/mL (≈ 1.12 µM). In addition, the MIC with E. coli TK-111 stood at 0.2 µg/mL (≈ 0.576 µM); with Kl. pneumoniae Y-50, 0.39 µg/mL (≈ 1.12 µM); in the assay with Ps. aeruginosa IFO3445 (setting [2]) it was 25 µg/mL (≈ 72 µM); in the assay on Ent. cloacae IID977, 1.56 µg/mL (≈ 4.49 µM); against Pro. mirabilis T-111 it was 3.13 µg/mL (≈ 9.01 µM); in the assay with St. aureus FDA209P, 0.1 µg/mL (≈ 0.288 µM). The MIC in the assay with Aci. antitratus A-6 amounted to 0.1 µg/mL (≈ 0.288 µM).
On to `O=C(O)c1cn(-c2ccc(O)cc2)c(-c2ccc(-n3cccc3)cc2)cc1=O`, for which the MIC was 0.78 µg/mL (≈ 2.09 µM) in the assay with Pro. vulgaris GN76**; no more than 0.05 µg/mL with E. coli GN5482**; 1.56 µg/mL (≈ 4.19 µM) with Ps. aeruginosa GN918** (GN918, 20 h); 0.1 µg/mL (≈ 0.269 µM) with St. aureus F-137*; 0.39 µg/mL (≈ 1.05 µM) in the assay on E. coli TK-3*; 3.13 µg/mL (≈ 8.41 µM) in the assay on Ps. aeruginosa GN3379* (20 h, read-out: MIC). Moreover, the MIC with Kl. pneumoniae Y-4* turned out to be 1.56 µg/mL (≈ 4.19 µM); against Pro. morganii T-216 (T216, 20 h, 10^6 cells per ml) it was 1.56 µg/mL (≈ 4.19 µM); in the assay on Pro. vulgaris GN3027, 0.2 µg/mL (≈ 0.537 µM); in the assay with Kl. pneumoniae Y-41, 1.56 µg/mL (≈ 4.19 µM); in the assay on Ps. aeruginosa S-68 (setting [1]), 3.13 µg/mL (≈ 8.41 µM); with E. coli NIHJ JC-2, 0.1 µg/mL (≈ 0.269 µM). For the same compound, the MIC is no more than 0.05 µg/mL in the assay on E. coli TK-111; 0.39 µg/mL (≈ 1.05 µM) in the assay on Kl. pneumoniae Y-50; 3.13 µg/mL (≈ 8.41 µM) in the assay on Ps. aeruginosa IFO3445 (setting [2]); 0.78 µg/mL (≈ 2.09 µM) in the assay with Ent. cloacae IID977; 1.56 µg/mL (≈ 4.19 µM) with Pro. mirabilis T-111; 0.1 µg/mL (≈ 0.269 µM) in the assay with St. aureus FDA209P. Further, the MIC in the assay on Aci. antitratus A-6 was found to be 0.1 µg/mL (≈ 0.269 µM).
In the case of `O=C(O)c1cn(-c2ccc(O)cc2)c(-c2ccc(-c3ccccn3)s2)cc1=O`, the MIC was 0.78 µg/mL (≈ 2 µM) with Pro. vulgaris GN76**; no more than 0.05 µg/mL with E. coli GN5482**; 1.56 µg/mL (≈ 4 µM) in the assay with Ps. aeruginosa GN918** (20 h, read-out: MIC); 0.2 µg/mL (≈ 0.512 µM) in the assay on St. aureus F-137*; 0.78 µg/mL (≈ 2 µM) with E. coli TK-3*; 3.13 µg/mL (≈ 8.02 µM) in the assay with Ps. aeruginosa GN3379* (GN3379, 20 h). For the same compound, the MIC stood at 3.13 µg/mL (≈ 8.02 µM) in the assay on Kl. pneumoniae Y-4*; 1.56 µg/mL (≈ 4 µM) in the assay with Pro. morganii T-216 (setting [3]); 0.1 µg/mL (≈ 0.256 µM) in the assay with Pro. vulgaris GN3027; 3.13 µg/mL (≈ 8.02 µM) with Kl. pneumoniae Y-41; 3.13 µg/mL (≈ 8.02 µM) with Ps. aeruginosa S-68 (S68, 20 h); 0.39 µg/mL (≈ 0.999 µM) in the assay on E. coli NIHJ JC-2. Besides, the MIC in the assay with E. coli TK-111 is no more than 0.05 µg/mL; with Kl. pneumoniae Y-50, 0.78 µg/mL (≈ 2 µM); against Ps. aeruginosa IFO3445 (IFO3445, 20 h), 3.13 µg/mL (≈ 8.02 µM); with Ent. cloacae IID977 it was 1.56 µg/mL (≈ 4 µM); in the assay with Pro. mirabilis T-111 it was 3.13 µg/mL (≈ 8.02 µM); in the assay with St. aureus FDA209P, 0.2 µg/mL (≈ 0.512 µM). The MIC with Aci. antitratus A-6 came out at 0.78 µg/mL (≈ 2 µM).

The values above are taken from patent US4698352A, “4-oxo-1,4-dihydronicotinic acid derivatives, salts thereof, and antibacterial agents containing the same” (Toyama Chemical Co., Ltd., priority 1982, dated 1987).
